Experiments:
[1] = system: Cryptococcus neoformans (ISS 1); test: MIC for yeast and yeast-like strains; assay type: cell-based; conditions: 48 hours, 35° C., read-out: Minimal Inhibitory Concentration (MIC)
Protocol: (§1) The following strains were used (the number of strains is in brackets): Candida (13); Criptococcus (2); Saccharormyces (1); Torulopsis (1).
(§2) Yeast Nitrogen Base supplemented with 0.15% asparagine and 1.0% glucose (as carbon source) was the medium utilized in the assays.
(§3) This medium was buffered with 0.165 M 2-(N-morpholino) propane sulfonic acid (MOPS), a non-chelating buffer.
(§4) Antimicrob. Agents Cheroother. Aug. 34.8:1542-1545).
(§5) The inoculum was prepared from an overnight broth culture (a 48-hour culture only for Cryptococcus) in Sabouraud broth and appropriately diluted to yield a final suspension containing approximately 5.0×10^6 Colony Forming Units per ml (CFU/ml), when compared to the Mc Farland's standard control (BRAY W. E., Clinical Laboratory Methods, 5th Ed. C. V. MOSBY, St. Louis, Mo, 1957).
(§6) After further diluting (1:50), a […] volume of such fungal suspensions and an equal volume of the substance solutions were distributed into each well of a microtiter plate (96 wells, round bottom). Such a procedure eventually allowed for an "in vitro" antimycotic activity assay utilizing final fungal inocula of approximately 5.0×10^4 CFU/ml.

[2] = system: Candida albicans (ATCC 2091); test: MIC for yeast and yeast-like strains; assay type: cell-based; conditions: ATCC2091, 48 hours, 35° C., read-out: Minimal Inhibitory Concentration (MIC)
Protocol: as §1, §2, §3, §4, §5, §6

[3] = system: Candida glabrata (ISS 1); test: MIC for yeast and yeast-like strains; assay type: cell-based; conditions: Nakaseomyces glabratus; 48 hours, 35° C.; read-out: Minimal Inhibitory Concentration (MIC)
Protocol: as §1, §2, §3, §4, §5, §6

[4] = system: Candida pseudotropicalis (EC 1); test: MIC for yeast and yeast-like strains; assay type: cell-based; conditions: Kluyveromyces marxianus; 48 hours, 35° C.; read-out: Minimal Inhibitory Concentration (MIC)
Protocol: as §1, §2, §3, §4, §5, §6

[5] = system: Candida tropicalis (ISS 1); test: MIC for yeast and yeast-like strains; assay type: cell-based; conditions: 48 hours, 35° C., read-out: Minimal Inhibitory Concentration (MIC)
Protocol: as §1, §2, §3, §4, §5, §6

[6] = system: Candida guilliermondii (ISS 1); test: MIC for yeast and yeast-like strains; assay type: cell-based; conditions: Meyerozyma guilliermondii; 48 hours, 35° C.; read-out: Minimal Inhibitory Concentration (MIC)
Protocol: as §1, §2, §3, §4, §5, §6

[7] = system: Candida albicans (ISS 1); test: MIC for yeast and yeast-like strains; assay type: cell-based; conditions: 48 hours, 35° C., read-out: Minimal Inhibitory Concentration (MIC)
Protocol: as §1, §2, §3, §4, §5, §6

[8] = system: Candida parapsilosis (ISS 1); test: MIC for yeast and yeast-like strains; assay type: cell-based; conditions: Lodderomyces parapsilosis; 48 hours, 35° C.; read-out: Minimal Inhibitory Concentration (MIC)
Protocol: as §1, §2, §3, §4, §5, §6

[9] = system: Candida albicans (PG); test: MIC and MFC for yeast and yeast-like strains; assay type: cell-based; conditions: 48 hours, 35° C., read-out: Minimal Inhibitory Concentration (MIC)
Protocol: as §1, §2, §3, §4, §5, §6
(§7) The minimal fungicidal concentration was evaluated by spot-transferring onto Petri dishes, containing Sabouraud agar, 0.01-ml volumes of all the samples showing no visible fungal growth.

[10] = system: Trichophyton rubrum (IHEM 4274); test: MIC for dermatophytic fungi; assay type: cell-based; conditions: 35° C., 96 hours, read-out: Minimal Inhibitory Concentration (MIC)
Protocol: (§8) The following strains were used: Trichophyton menthagrophytes ATCC 9533, Trichophyton rubrum IHEM 4274, Microsporum canis IHEM 3522, Epydermophyton floccosum IHEM 3495. The tested substances were: ST 722, ST 1033, ST 1037, ST 1050, ST 1051, ST 1052,. ST 1053.
(§9) The assay was performed following the same procedure described for the yeasts, by using 7-day fungi cultures grown at 30° C. in Potato Dextrose agar, and harvested with Sabouraud broth and Tween 80 (0.5%).
(§10) After washing with Yeast Nitrogen Base, supplemented with asparagine and glucose (as carbon source), the fungal suspension was fragmented using a tissue grinder until the largest clumps or aggregates were undetectable within the grinder. This fungal suspension was then appropriately diluted in YNB to yield a concentration of 2.0×10^5 infective particles/ml (small mycelium fragments, micro-and macroaleuriospores).
(§11) Volumes of 100 μl both of the fungal suspensions and substance solutions, two-fold serially diluted in assay medium, were distributed into each well of a microtiter plate (96 wells, round bottom), which was incubated at 35° C. for 96 hours.

[11] = system: Epidermophyton floccosum (IHEM 3495); test: MIC for dermatophytic fungi; assay type: cell-based; conditions: 35° C., 96 hours, read-out: Minimal Inhibitory Concentration (MIC)
Protocol: as §8, §9, §10, §11

[12] = system: Microsporum canis (IHEM 3522); test: MIC for dermatophytic fungi; assay type: cell-based; conditions: 35° C., 96 hours, read-out: Minimal Inhibitory Concentration (MIC)
Protocol: as §8, §9, §10, §11

[13] = system: Trichophyton menthagrophites (ATCC 9533); test: MIC for dermatophytic fungi; assay type: cell-based; conditions: ATCC9533, 35° C., 96 hours, read-out: Minimal Inhibitory Concentration (MIC)
Protocol: as §8, §9, §10, §11

[14] = system: dermatophytic fungi; test: MIC / MFC for dermatophytic fungi, all strains; assay type: cell-based, Trichophyton, Microsporum, Epidermophyton; conditions: versus susceptible strains
Protocol: as §8, §9, §10, §11

[15] = system: filamentous fungi; test: MIC / MFC for filamentous fungi, all strains; assay type: cell-based, Aspergillus, Fusarium, Mucor, Penicillium; conditions: versus susceptible strains; read-out: Mean MIC values
Description: (§12) The following strains were used (the number of strains is in brackets): Aspergillus (5); Fusarium (1); Mucor (1); Penicillium (1).
(§13) The tested substances were: ST 712, ST 722, ST 982, ST 983, ST 1000, ST 1001, ST 1032, ST 1033, ST 1034, ST 1036, ST 1037, ST 1038, ST 1050, ST 1051, ST 1052, ST 1053. The assay medium was the same as the one used in the previous study. The conidia from 72-hour cultures in Sabouraud agar, collected by washing with Sabouraud medium and Tween 80 (one drop of Tween per 10 ml of medium), were utilized as inoculum (5.0×10^4 CFU/ml).
(§14) The assay was performed using the same procedure as described for yeast-like fungi.
(§15) Also the evaluation of MIC and MFC was as reported previously.

[16] = system: yeast-like fungi; test: MIC / MFC for yeast-like fungi, all strains; assay type: cell-based, Candida, Cryptococcus, Saccharomyces, Torulopsis; conditions: versus susceptible strains; read-out: Mean MIC values
Protocol: as §1, §2
(§16) This medium was buffered with 0.165 M 2-(N-morpholino) propane sulfonic acid (MOPS), a non-chelating buffer. […]
as §5, §6, §7

[17] = system: Aspergillus fumigatus (1/A); test: MIC for filamentous fungi; assay type: cell-based; conditions: read-out: Minimal Inhibitory Concentration (MIC)
Description: as §12, §13, §14, §15

[18] = system: Aspergillus fumigatus (C/1); test: MIC for filamentous fungi; assay type: cell-based; conditions: read-out: Minimal Inhibitory Concentration (MIC)
Description: as §12, §13, §14, §15

[19] = system: Fusarium sp. (ISS 1); test: MIC for filamentous fungi; assay type: cell-based; conditions: read-out: Minimal Inhibitory Concentration (MIC)
Description: as §12, §13, §14, §15

[20] = system: Penicillium sp. (1302); test: MIC for filamentous fungi; assay type: cell-based; conditions: read-out: Minimal Inhibitory Concentration (MIC)
Description: as §12, §13, §14, §15

[21] = system: Mucor mucedo (ATCC 7941); test: MIC for filamentous fungi; assay type: cell-based; conditions: ATCC7941, read-out: Minimal Inhibitory Concentration (MIC)
Description: as §12, §13, §14, §15

[22] = system: Aspergillus fumigatus (ATCC 28212); test: MIC for filamentous fungi; assay type: cell-based; conditions: ATCC28212, read-out: Minimal Inhibitory Concentration (MIC)
Description: as §12, §13, §14, §15

[23] = system: Aspergillus niger (ATCC 16404); test: MIC for filamentous fungi; assay type: cell-based; conditions: ATCC16404, read-out: Minimal Inhibitory Concentration (MIC)
Description: as §12, §13, §14, §15

[24] = system: Aspergillus fumigatus (2/A); test: MIC for filamentous fungi; assay type: cell-based; conditions: read-out: Minimal Inhibitory Concentration (MIC)
Description: as §12, §13, §14, §15

[25] = system: Candida albicans (562); test: MIC for yeast and yeast-like strains; assay type: cell-based; conditions: 48 hours, 35° C., read-out: Minimal Inhibitory Concentration (MIC)
Protocol: as §1, §2, §16, §5, §6

[26] = system: Candida tropicalis (5705); test: MIC for yeast and yeast-like strains; assay type: cell-based; conditions: 48 hours, 35° C., read-out: Minimal Inhibitory Concentration (MIC)
Protocol: as §1, §2, §16, §5, §6

[27] = system: Torulopsis candida (D.S.); test: MIC for yeast and yeast-like strains; assay type: cell-based; conditions: Suzukiozyma candida; 48 hours, 35° C.; read-out: Minimal Inhibitory Concentration (MIC)
Protocol: as §1, §2, §16, §5, §6

[28] = system: Candida krusei (ISS 1); test: MIC for yeast and yeast-like strains; assay type: cell-based; conditions: Pichia kudriavzevii; 48 hours, 35° C.; read-out: Minimal Inhibitory Concentration (MIC)
Protocol: as §1, §2, §16, §5, §6

[29] = system: Cryptococcus neoformans (4711); test: MIC for yeast and yeast-like strains; assay type: cell-based; conditions: 48 hours, 35° C., read-out: Minimal Inhibitory Concentration (MIC)
Protocol: as §1, §2, §16, §5, §6

[30] = system: Candida albicans (Ca 2); test: MIC for yeast and yeast-like strains; assay type: cell-based; conditions: 48 hours, 35° C., read-out: Minimal Inhibitory Concentration (MIC)
Protocol: as §1, §2, §16, §5, §6

[31] = system: Saccharomyces cerevisiae (ATCC 7752); test: MIC for yeast and yeast-like strains; assay type: cell-based; conditions: ATCC7752, 48 hours, 35° C., read-out: Minimal Inhibitory Concentration (MIC)
Protocol: as §1, §2, §16, §5, §6

[32] = system: Candida albicans (A 54); test: MIC for yeast and yeast-like strains; assay type: cell-based; conditions: 48 hours, 35° C., read-out: Minimal Inhibitory Concentration (MIC)
Protocol: as §1, §2, §16, §5, §6

Structure (SMILES) | MIC [1] | MIC [2] | MIC [3] | MIC [4] | MIC [5] | MIC [6] | MIC [7] | MIC [8] | MIC [9] | MIC [10] | MIC [11] | MIC [12] | MIC [13] | MIC [14] | MIC [15] | MIC [16] | MIC [17] | MIC [18] | MIC [19] | MIC [20] | other results
CCCCCCCCCCCCOC(=O)C[C@H](C[N+](C)(C)C)OC(=O)CC(C)C [ST 1037] | 1.56 µg/mL | 1.56 µg/mL | 3.12 µg/mL | 6.25 µg/mL | 3.12 µg/mL | 6.25 µg/mL | 3.12 µg/mL | 3.12 µg/mL | 3.12 µg/mL | 6.25 µg/mL | 25 µg/mL | 12.5 µg/mL | 12.5 µg/mL | 14.1 µg/mL | 6.64 µg/mL | 2.8 µg/mL | 6.25 µg/mL | 6.25 µg/mL | 3.12 µg/mL | 6.25 µg/mL | MIC [21]: 12.5 µg/mL; MIC [22]: 6.25 µg/mL; MIC [23]: 6.25 µg/mL; MIC [24]: 6.25 µg/mL; MIC [25]: 1.56 µg/mL; MIC [26]: 3.12 µg/mL; MIC [27]: 3.12 µg/mL; MIC [28]: 1.56 µg/mL; MIC [29]: 0.78 µg/mL; MIC [30]: 1.56 µg/mL; MIC [31]: 3.12 µg/mL; MIC [32]: 1.56 µg/mL
CCCCCCCCCCCCCOC(=O)C[C@H](C[N+](C)(C)C)OC(=O)CC(C)C [ST 1033] | 1.56 µg/mL | 3.12 µg/mL | 3.12 µg/mL | 3.12 µg/mL | 3.12 µg/mL | 6.25 µg/mL | 1.56 µg/mL | 3.12 µg/mL | 3.12 µg/mL | 6.25 µg/mL | 25 µg/mL | 6.25 µg/mL | 12.5 µg/mL | 12.5 µg/mL | 3.9 µg/mL | 2.7 µg/mL | 3.12 µg/mL | 3.12 µg/mL | 3.12 µg/mL | 3.12 µg/mL | MIC [21]: 6.25 µg/mL; MIC [22]: 3.12 µg/mL; MIC [23]: 6.25 µg/mL; MIC [24]: 3.12 µg/mL; MIC [25]: 1.56 µg/mL; MIC [26]: 3.12 µg/mL; MIC [27]: 3.12 µg/mL; MIC [28]: 3.12 µg/mL; MIC [29]: 0.78 µg/mL; MIC [31]: 3.12 µg/mL; MIC [32]: 1.56 µg/mL
